# Results published in publication PMC6332200, “Isolation and Identification of Cytotoxic Compounds from Aeschynomene fascicularis, a Mayan Medicinal Plant” (Molecules, 2015).
# Values joined by “and” are separate entries in the source; they are usually repeats but may differ in a detail not shown here. Identical values can stand only once.
# Columns and labels:
# MDCK = test: Antiproliferative sulforhodamine B assay, MDCK normal cell line; assay type: cell-based; conditions: Canis lupus familiaris, SRB, 48 h
# Experimental: (§1) Three types of cancer cell lines obtained from the American Type Culture Collection (ATCC) were cultured: two oral-laryngeal cancer cell lines, nasopharynx carcinoma (KB, ATCC-CCL-17) and laryngeal carcinoma (Hep-2, ATCC-CCL-23); two cervix-uterine cancer cell lines, cervix adenocarcinoma (HeLa, ATCC-CCL-2) and cervix squamous carcinoma (SiHa, ATCC-HTB-35); and two prostate cancer cell lines, prostate carcinoma (DU-145, ATCC-HTB-81) and prostate adenocarcinoma (PC-3, ATCC-CRL-1435); along with one normal cell line (MDCK, ATCC-CCL-34). The cells were cultured in sterile Costar T75 flasks containing DMEM (Gibco, Hong Kong, China), supplemented with fetal bovine serum (10%, v/v), 100 U/mL penicillin G, and […] streptomycin at 37 °C in an atmosphere of 5% CO2 (95% humidity). At 70%–80% confluence, cells were detached from the cultured flask by treatment with 0.05% trypsin-EDTA (Gibco), and a suspension of 5 × 10^4 cells/mL of viable cells was seeded in a 96-well microtiter plate (Costar, Washington, DC, USA) and incubated.
# (§2) The growth inhibition of cancer cells was evaluated by the sulforhodamine B method. When cells reached 70% confluence in a microtiter plate, the medium was replaced with DMEM 5% FBS and samples at various concentrations. After 48 h, the medium was discarded, and cells were fixed by adding 50 μL of 10% trichloroacetic acid (TCA, Sigma-Aldrich Chemical, St. Louis, MO, USA). The cells were then incubated at 4 °C for 30 min; TCA was drained off, and the plates were left to dry. Then, 50 μL of SRB stain (10 mg of 1% acetic acid, Sigma) were added to each well for 30 min. Finally, the plates were washed four times with 1% acetic acid (100 μL). The OD was measured at 540 nm using an ELISA reader (Bio-Rad). Docetaxel was used as a positive control, whereas cells incubated only with 0.05% of DMSO were used as a negative control. All determinations were performed in triplicate.
# (§3) The cytotoxic and antiproliferative activities of tested compounds were calculated as the percentage of cells killed or the percentage of inhibition of cell proliferation, respectively, using the equation: growth inhibition (%) = (ODcontrol − ODsample/ODcontrol) × 100. […] In addition, the level of cytotoxicity on normal cells was evaluated by determining the selectivity index (SI) of each compound, which is calculated as the ratio of cytotoxicity or reduced cell growth on normal cells to cancer cells (SI = normal cells/cancer cells). It is generally considered that biological efficacy is not due to general toxicity when SI ≥ 10 [17].
# Leishmania mexicana = test system: Leishmania mexicana; parameters: method as in PMID 17291734; conditions: cited from earlier work
# SiHa [1] = test: Cytotoxicity MTT assay, SiHa cervix squamous carcinoma; assay type: cell-based, human; conditions: Homo sapiens; SiHa, MTT, 72 h; read-out: Cytotoxic activity CC50
# Experimental: (§4) Three types of cancer cell lines obtained from the American Type Culture Collection (ATCC) were cultured: two oral-laryngeal cancer cell lines, nasopharynx carcinoma (KB, ATCC-CCL-17) and laryngeal carcinoma (Hep-2, ATCC-CCL-23); two cervix-uterine cancer cell lines, cervix adenocarcinoma (HeLa, ATCC-CCL-2) and cervix squamous carcinoma (SiHa, ATCC-HTB-35); and two prostate cancer cell lines, prostate carcinoma (DU-145, ATCC-HTB-81) and prostate adenocarcinoma (PC-3, ATCC-CRL-1435); along with one normal cell line (MDCK, ATCC-CCL-34). The cells were cultured in sterile Costar T75 flasks containing DMEM (Gibco, Hong Kong, China), supplemented with fetal bovine serum (10%, v/v), 100 U/mL penicillin G, and […] streptomycin at 37 °C in an atmosphere of 5% CO2 (95% humidity). At 70%–80% confluence, cells were detached from the cultured flask by treatment with 0.05% trypsin-EDTA (Gibco), and a suspension of 5 × 10^4 cells/mL of viable cells was seeded in a 96-well microtiter plate (Costar, Washington, DC, USA) and incubated. Cytotoxicity was assessed by the MTT assay as previously described by Rahman. When cells reached 90% confluence in a microtiter plate, the DMEM was replaced with fresh medium and cells were incubated with compounds at various concentrations. […] The medium was aspirated, and the formazan product was solubilized with acidified isopropanol (0.4 N HCl). The amount of MTT-formazan is directly proportional to the number of living cells and was determined by measuring the optical density (OD) at 590 nm using a bioassay reader (Bio-Rad). All determinations were performed in triplicate. The cytotoxic and antiproliferative activities of tested compounds were calculated as the percentage of cells killed or the percentage of inhibition of cell proliferation, respectively, using the equation: growth inhibition (%) = (ODcontrol − ODsample/ODcontrol) × 100. […] In addition, the level of cytotoxicity on normal cells was evaluated by determining the selectivity index (SI) of each compound, which is calculated as the ratio of cytotoxicity or reduced cell growth on normal cells to cancer cells (SI = normal cells/cancer cells).
# [2] = Cytotoxicity MTT assay, KB nasopharynx carcinoma; assay type: cell-based, human; conditions: human, MDCK normal cells versus KB nasopharynx carcinoma cells; CC50 MDCK normal cells / KB; read-out: Selectivity index (SI) of cytotoxic activity
# Experimental: as §4
# KB [3] = test: Cytotoxicity MTT assay, KB nasopharynx carcinoma; assay type: cell-based, human; conditions: Homo sapiens; KB, MTT, 72 h; read-out: Cytotoxic activity CC50
# Experimental: as §4
# HeLa [4] = test: Antiproliferative sulforhodamine B assay, HeLa; assay type: cell-based, human; conditions: Homo sapiens; HeLa, SRB, 48 h
# Experimental: as §1, §2, §3
# PC-3 [5] = test: Antiproliferative sulforhodamine B assay, PC-3; assay type: cell-based; conditions: Homo sapiens; PC-3, SRB, 48 h
# Experimental: as §1, §2, §3
# DU-145 [6] = test: Antiproliferative sulforhodamine B assay, DU-145; assay type: cell-based, human
# Experimental: as §1, §2, §3
# HeLa [7] = test: Cytotoxicity MTT assay, HeLa cervix adenocarcinoma; assay type: cell-based, human; conditions: Homo sapiens; HeLa, MTT, 72 h; read-out: Cytotoxic activity CC50
# Experimental: as §4
# [8] = Cytotoxicity MTT assay, DU-145 prostate carcinoma; assay type: cell-based, human; conditions: human, MDCK normal cells versus DU-145 prostate carcinoma cells; CC50 MDCK normal cells / DU-145; read-out: Selectivity index (SI) of cytotoxic activity
# Experimental: as §4
# DU-145 [9] = test: Cytotoxicity MTT assay, DU-145 prostate carcinoma; assay type: cell-based, human; conditions: Homo sapiens; DU-145, MTT, 72 h; read-out: Cytotoxic activity CC50
# Experimental: as §4
# [10] = Cytotoxicity MTT assay, PC-3 prostate adenocarcinoma; assay type: cell-based, human; conditions: human, MDCK normal cells versus PC-3 prostate adenocarcinoma cells; CC50 MDCK normal cells / PC-3; read-out: Selectivity index (SI) of cytotoxic activity
# Experimental: as §4
# PC-3 [11] = test: as above; assay type: cell-based, human; conditions: Homo sapiens; PC-3, MTT, 72 h; read-out: Cytotoxic activity CC50
# Experimental: as §4
# Trypanosoma cruzi = test system: Trypanosoma cruzi; parameters: method as in PMID 17291734; conditions: cited from earlier work
# Hep-2 [12] = test: Antiproliferative sulforhodamine B assay, Hep-2; assay type: cell-based, human; conditions: Homo sapiens; Hep-2, SRB, 48 h
# Experimental: as §1, §2, §3
# [13] = Cytotoxicity MTT assay, Hep-2 laryngeal carcinoma; assay type: cell-based, human; conditions: dog MDCK normal cells versus Hep-2 laryngeal carcinoma cells; CC50 MDCK normal cells / Hep-2; read-out: Selectivity index (SI) of cytotoxic activity
# Experimental: as §4
# Hep-2 [14] = test: Cytotoxicity MTT assay, Hep-2 laryngeal carcinoma; assay type: cell-based, human; conditions: Homo sapiens; Hep-2, MTT, 72 h; read-out: Cytotoxic activity CC50
# Experimental: as §4
# SiHa [15] = test: Antiproliferative sulforhodamine B assay, SiHa; assay type: cell-based, human; conditions: Homo sapiens; SiHa, SRB, 48 h
# Experimental: as §1, §2, §3
# KB [16] = test: Antiproliferative sulforhodamine B assay, KB; assay type: cell-based, human; conditions: Homo sapiens; KB, SRB, 48 h
# Experimental: as §1, §2, §3
# [17] = Cytotoxicity MTT assay, MDCK normal cell line; assay type: cell-based; conditions: dog, MDCK cells (normal cell line), read-out: Cytotoxic activity CC50
# Experimental: as §4
compound,measurement,setting,value
"CC(C)=CCc1c(O)ccc(C(=O)/C=C/c2ccccc2)c1O [Compound 3, isocordoin]",IC50,MDCK,18.4 µg/mL and 60.8 µM
same,Activity against the parasite Leishmania mexicana,Leishmania mexicana,active
same,CC50,SiHa [1],> 100 µg/mL
same,selectivity ratio at 72 h,[2],0.5
same,CC50,KB [3],11 µg/mL and 27 µM
same,IC50,HeLa [4],> 100 µM
same,IC50,PC-3 [5],> 100 µM
same,IC50,"DU-145 [6]; Homo sapiens, DU-145, SRB, 48 h",13.3 µg/mL and 43.8 µM
same,Selectivity index (SI) of antiproliferative activity,DU-145 [6]; IC50 MDCK normal cells / DU-145,1.4
same,CC50,HeLa [7],> 100 µg/mL
same,selectivity ratio at 72 h,[8],0.6
same,CC50,DU-145 [9],7 µg/mL and 23.1 µM
same,selectivity ratio at 72 h,[10],0.23
same,CC50,PC-3 [11],18.4 µg/mL and 60.3 µM
same,Activity against the parasite Trypanosoma cruzi,Trypanosoma cruzi,active
same,IC50,Hep-2 [12],> 100 µM
same,selectivity ratio at 72 h,[13],0.7
same,CC50,Hep-2 [14],6.1 µg/mL and 20 µM
same,IC50,SiHa [15],> 100 µM
same,IC50,KB [16],> 100 µM
same,CC50 at 72 h,[17],4.2 µg/mL and 14 µM
